From patent US7728012B2, “Carboxamide compounds and their use as calpain inhibitors” (Abbott GmbH & Co. KG, priority 2006, dated 2010)

Assays:
Format in all cases: biochemical
[1] = target: T1, calpain-I isolated from human erythrocytes (Homo sapiens, UniProt P07384); experiment: Calpain I kinetic fluorescence enzyme inhibition assay; conditions: apparent Ki from IC50 by Cheng-Prussoff; average of 2 to 4 dose-effect plots
T1 construct: calpain-I—isolated from human erythrocytes; purchased Calbiochem 208713; host or cells: human erythrocytes (tissue isolate)
T1 sequence (P07384 1-714): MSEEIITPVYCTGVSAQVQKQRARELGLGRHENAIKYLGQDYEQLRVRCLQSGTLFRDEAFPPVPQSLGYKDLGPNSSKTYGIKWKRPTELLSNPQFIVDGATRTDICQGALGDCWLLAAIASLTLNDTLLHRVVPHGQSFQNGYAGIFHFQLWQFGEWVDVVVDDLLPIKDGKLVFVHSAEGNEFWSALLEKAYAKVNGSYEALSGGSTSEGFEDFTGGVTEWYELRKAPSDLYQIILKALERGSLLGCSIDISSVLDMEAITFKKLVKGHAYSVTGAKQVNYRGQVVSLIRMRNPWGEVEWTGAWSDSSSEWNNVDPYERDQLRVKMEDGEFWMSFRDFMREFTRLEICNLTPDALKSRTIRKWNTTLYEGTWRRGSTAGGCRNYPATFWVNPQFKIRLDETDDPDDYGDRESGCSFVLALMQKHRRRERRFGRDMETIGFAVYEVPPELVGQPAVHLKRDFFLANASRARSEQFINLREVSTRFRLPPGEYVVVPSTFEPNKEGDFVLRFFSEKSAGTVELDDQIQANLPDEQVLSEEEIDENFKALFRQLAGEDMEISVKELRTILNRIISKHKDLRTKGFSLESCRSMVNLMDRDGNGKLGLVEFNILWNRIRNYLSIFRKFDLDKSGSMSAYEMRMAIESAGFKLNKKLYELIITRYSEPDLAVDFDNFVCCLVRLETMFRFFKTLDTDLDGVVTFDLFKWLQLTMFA
T1 sequence (P04632 1-268 partner): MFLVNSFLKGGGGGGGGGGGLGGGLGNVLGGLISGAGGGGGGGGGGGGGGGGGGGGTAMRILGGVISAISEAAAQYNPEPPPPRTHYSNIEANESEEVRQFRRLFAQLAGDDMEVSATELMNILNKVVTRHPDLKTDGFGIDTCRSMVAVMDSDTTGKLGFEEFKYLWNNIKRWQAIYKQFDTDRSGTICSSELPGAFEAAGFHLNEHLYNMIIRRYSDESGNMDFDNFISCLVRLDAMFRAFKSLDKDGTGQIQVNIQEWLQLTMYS

[2] = target: T2, recombinant human cathepsin S (Homo sapiens, UniProt P25774); experiment: Cathepsin S kinetic fluorescence enzyme inhibition assay; conditions: selectivity ratio versus calpain I
T2 construct: purchased Calbiochem 219343; host or cells: E. coli
Method in brief: (§1)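 Cathepsin B (0.25 nM, human liver) with 100 μM Z-Phe-Arg-AMC; L (1 nM, human liver) with 2 μM Z-Phe-Arg-AMC; S (0.5 nM, recombinant) with 20 μM Z-Val-Val-Arg-AMC. pH 6.0 MES buffer, 2.5 mM L-cysteine, room temperature. Kinetic fluorescence (ex 390/em 460 nm); apparent Ki from IC50 by Cheng-Prusoff.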

[3] = target: T3, cathepsin L isolated from human liver (Homo sapiens, UniProt P07711); experiment: Cathepsin L kinetic fluorescence enzyme inhibition assay; conditions: selectivity ratio versus calpain I
T3 construct: cathepsin L—isolated from human liver; purchased Calbiochem 219402; host or cells: human liver (tissue isolate)
Method in brief: as §1

[4] = target: T4, cathepsin B isolated from human liver (Homo sapiens, UniProt P07858); experiment: Cathepsin B kinetic fluorescence enzyme inhibition assay; conditions: selectivity ratio versus calpain I
T4 construct: cathepsin B—isolated from human liver; purchased Calbiochem 219362; host or cells: human liver (tissue isolate)
Method in brief: as §1

[5] = target: T5, cathepsin K activated from recombinant human procathepsin K (Homo sapiens, UniProt P43235); experiment: Cathepsin K kinetic fluorescence enzyme inhibition assay; conditions: selectivity ratio versus calpain I
T5 construct: purchased Calbiochem 342001; host or cells: E. coli
T5 sequence (P43235 115-329): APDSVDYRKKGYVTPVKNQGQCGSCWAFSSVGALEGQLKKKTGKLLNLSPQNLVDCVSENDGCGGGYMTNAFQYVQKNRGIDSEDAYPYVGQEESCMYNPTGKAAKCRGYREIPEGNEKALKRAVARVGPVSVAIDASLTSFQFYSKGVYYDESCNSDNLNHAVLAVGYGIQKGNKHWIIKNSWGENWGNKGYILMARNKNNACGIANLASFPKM

T3 sequence (P07711 114-333): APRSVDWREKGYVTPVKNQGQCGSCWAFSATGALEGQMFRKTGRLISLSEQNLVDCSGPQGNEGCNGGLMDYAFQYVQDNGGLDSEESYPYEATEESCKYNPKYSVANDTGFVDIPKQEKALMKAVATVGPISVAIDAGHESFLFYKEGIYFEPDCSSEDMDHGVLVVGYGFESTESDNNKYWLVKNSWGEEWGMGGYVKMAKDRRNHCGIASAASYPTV
T2 sequence (P25774 115-331): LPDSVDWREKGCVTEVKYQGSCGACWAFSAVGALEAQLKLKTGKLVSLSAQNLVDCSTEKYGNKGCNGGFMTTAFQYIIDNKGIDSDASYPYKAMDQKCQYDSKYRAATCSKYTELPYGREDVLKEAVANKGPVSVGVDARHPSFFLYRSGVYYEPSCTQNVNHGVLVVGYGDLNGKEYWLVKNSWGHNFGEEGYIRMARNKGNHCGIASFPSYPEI

Compound	Ki [1] [nM]	Sel cat. S (Ki(cathepsin S)/Ki(calpain) ratio) [2]	Sel cat. L (Ki(cathepsin L)/Ki(calpain) ratio) [3]	Sel cat. B (Ki(cathepsin B)/Ki(calpain) ratio) [4]	Sel cat. K (Ki(cathepsin K)/Ki(calpain) ratio) [5]
NC(=O)C(=O)C(Cc1ccccc1)NC(=O)c1cccnc1-n1cc(Cl)c(-c2ccc(F)cc2)n1 (stereo not shown) [Example 184, N-[3-Amino-2,3-dioxo-1-(phenylmethyl)propyl]-2-[4-chloro-3-(4-fluorophenyl)-1H-pyrazol-1-yl]pyridine-3-carboxamide]	40 to 100	++ (Ki(cathepsin S)/Ki(calpain) ratio of ≧100)	++ (Ki(cathepsin L)/Ki(calpain) ratio of ≧50)	+ (10≦Ki(cathepsin B)/Ki(calpain)<30)	+ (10≦Ki(cathepsin K)/Ki(calpain)<30)
NC(=O)C(=O)C(Cc1ccccc1)NC(=O)c1cccnc1-n1ccc(C23CC4CC(CC(C4)C2)C3)n1 (stereo not shown) [Example 193, N-[3-Amino-2,3-dioxo-1-(phenylmethyl)propyl]-2-(3-tricyclo[3.3.1.1^3,7]dec-1-yl-1H-pyrazol-1-yl)pyridine-3-carboxamide]	≤ 40	++ (Ki(cathepsin S)/Ki(calpain) ratio of ≧100)	++ (Ki(cathepsin L)/Ki(calpain) ratio of ≧50)	++ (Ki(cathepsin B)/Ki(calpain) ratio of ≧30)	++ (Ki(cathepsin K)/Ki(calpain) ratio of ≧30)
N-[3-Amino-2,3-dioxo-1-(phenylmethyl)propyl]-2-[3-(3,5-dichlorophenyl)-1H-pyrazol-1-yl]pyridine-3-carboxamide [Example 89]	40 to 100	++ (Ki(cathepsin S)/Ki(calpain) ratio of ≧100)	++ (Ki(cathepsin L)/Ki(calpain) ratio of ≧50)	+ (10≦Ki(cathepsin B)/Ki(calpain)<30)	+ (10≦Ki(cathepsin K)/Ki(calpain)<30)

More lines, main results first:

Ki [1] [nM]	Compound	Sel cat. S (Ki(cathepsin S)/Ki(calpain) ratio) [2]	Sel cat. L (Ki(cathepsin L)/Ki(calpain) ratio) [3]	Sel cat. B (Ki(cathepsin B)/Ki(calpain) ratio) [4]	Sel cat. K (Ki(cathepsin K)/Ki(calpain) ratio) [5]
≤ 40	NC(=O)C(=O)C(Cc1ccccc1)NC(=O)c1cccnc1-n1cc2c(n1)-c1cccc(Cl)c1OC2 (stereo not shown) [Example 175, N-[3-Amino-2,3-dioxo-1-(phenylmethyl)propyl]-2-(6-chlorochromeno[4,3-c]pyrazol-2(4H)-yl)pyridine-3-carboxamide]	++ (Ki(cathepsin S)/Ki(calpain) ratio of ≧100)	++ (Ki(cathepsin L)/Ki(calpain) ratio of ≧50)	++ (Ki(cathepsin B)/Ki(calpain) ratio of ≧30)	++ (Ki(cathepsin K)/Ki(calpain) ratio of ≧30)
≤ 40	COc1ccc2c(c1)-c1nn(-c3ncccc3C(=O)NC(Cc3ccccc3)C(=O)C(N)=O)cc1CO2 (stereo not shown) [Example 183, N-[3-Aamino-2,3-dioxo-1-(phenylmethyl)propyl]-2-[8-(methyloxy)chromeno[4,3-c]pyrazol-2(4H)-yl]pyridine-3-carboxamide]	++ (Ki(cathepsin S)/Ki(calpain) ratio of ≧100)	++ (Ki(cathepsin L)/Ki(calpain) ratio of ≧50)	+ (10≦Ki(cathepsin B)/Ki(calpain)<30)	+ (10≦Ki(cathepsin K)/Ki(calpain)<30)
